Laboratory results taken from patent publication US20110281852A1 (priority 2010, published 2011).

What was measured:
[1] = tested on: 3T3-L1 cells; test: Quantitative Oil Red O staining, 3T3-L1 adipocyte differentiation (Example 1); format: cell-based, mouse; conditions: for reduction in fat droplets: 6 days post differentiation induction
Protocol: Oil-Red-O Staining: Oil-Red-O Staining was performed as previously described (Liu et al. 2004). Images were obtained using an Olympus IX70 inverted microscope (Tokyo, Japan). Quantification Oil-Red-O Staining of cells was carried out as described (Furuyashiki et al., Biosci Biotechnol Biochem (2004) 68:[…]).
Standard Oil Red O staining was then used to examine the extent of differentiation process at days 2, 4, 6, and 8 using microscopy. […] (FIG. 4).

[2] = tested on: 3T3-L1 cells; test: MTT assay, 3T3-L1 viability during differentiation with clozapine, risperidone, berberine (Example 2); format: cell-based, mouse; conditions: day 8
Protocol: Cell culture and drug treatment: 3T3-L1 cells (American Type Culture Collection, Manassas, Va., USA) were cultured at 37° C. in a humidified 5% CO2 atmosphere and grown in a DMEM (Sigma-Aldrich, St. Louis, Mo. USA) supplemented with 10% Fetal Bovine Serum (FBS, Atlanta Biologicals Corp., Lawrenceville, Ga., USA), 100 units/ml penicillin and 100 μg/ml streptomycin. Differentiation was induced by addition of 167 nM insulin, 520 μM isobutylmethylxanthine (IBMX), and 1 μM dexamethasone for 2 days and then only with 167 nM insulin for 6 days. Detailed protocol was described as our previous report (Hu et al., Phytomedicine (2009) 16(9):864-873).
Medium was removed after differentiation and treatment for 8 days, MTT (Methylthiazolyldiphenyl—tetrazolium bromide 0.5 mg/ml, 50 μl/well) was added.

[3] = tested on: PPARγ; test: Real-time RT-PCR, PPARγ mRNA in 3T3-L1; format: cell-based, mouse; conditions: 8 days
Excerpt: Realtime RT-PCR: Real-time reverse transcriptase polymerase chain reaction (RT-PCR) analysis was used to measure mRNA expression of genes SREBP-1, PPARγ, C/EBPα, low density lipoprotein receptor (LDLR), Adiponectin, and fatty acid synthase (FAS) under the control of β-actin. Briefly, total RNA was isolated from 3T3-L1 cells following treatment for 8 days with Trizol reagent (Invitrogen, Carlsbad, Calif., USA) according to the manufacturer's instruction. RNA was quantified using absorption of light at 260 nm, and sample purity was checked by OD 260 nm/280 nm. 0.8 μg of total RNA from each sample was used for reverse transcription reaction using the TaqMan Reverse Transcription Reagents (Applied Biosystems, Foster City, Calif., USA) according to the manufacturers' instructions. PCR was done using the SYBR green Master Mix (Applied Biosystems, Foster City, Calif., USA) according to the manufacturers' instructions. The temperature cycling conditions of amplification were as follows: an initial step of denaturation at 95° C. for 10 min, 40 cycles of denaturation at 95° C. for 30 s, annealing at 55° C. for 30 s, and elongation at 72° C. for 30 s. Realtime RT-PCR was performed using Mx3000P Realtime Thermocyclers (Statagene, La Jolla, Calif., USA). The relative mRNA levels of these genes were calculated by 2-delta delta CT method and normalized with control groups.

[4] = Body weight gain, high-fat diet-induced obesity mice and normal diet mice; format: in vivo, mouse
Excerpt: (§1) Six mice per subgroup were obtained finally.

[5] = Food intake, high-fat diet and normal diet mice; format: in vivo, mouse
Excerpt: as §1

[6] = Serum total cholesterol assay in mice; format: in vivo, mouse
Protocol: as §1
Serum glucose, triglyceride, cholesterol assay: Blood samples from each mouse were collected and serum was separated by centrifugation for the measurement of levels of glucose, triglyceride and total cholesterol. Serum glucose concentrations were analyzed using Glucose (HK) Assay Kit (Sigma-aldrich, Saint Louis, Mo., USA). Serum triglyceride concentrations were analyzed using Serum Triglyceride Determination Kit (Sigma-aldrich, Saint Louis, Mo., USA). Serum cholesterol concentrations were analyzed using Amplex® Red Cholesterol Assay Kit (Invitrogen, Carlsbad, Calif., USA). All experimental assays were done according to the manufacturer's instructions.

[7] = tested on: GATA-3; test: Real-Time RT-PCR, GATA-3 mRNA in epididymal fat of FD mice; format: in vivo, mouse
Protocol: RNA and protein purification and quantification from epididymal fat tissues: RNA and protein was isolated from 60 mg of epididymal fat tissues with Trizol (Invitrogen, Carlsbad, Calif., USA) following the protocol recommended by the manufacturers. RNA was dissolved in pure water and quantified at 260/280 nm, and sample integrity was checked by 1.5% agarose gel electrophoresis. Protein concentration was determined using the Micro BCA Protein Assay Kit (Fisher Scientific, Pittsburgh, Pa., USA) according to the manufacturer's instructions.
Quantitative Real-Time RT-PCR: Real-Time reverse transcriptase polymerase chain reaction (RT-PCR) analysis was used to measure mRNA expression of genes PPARγ, C/EBPα, GATA-2 and GATA-3 in the control of β-actin. Total RNA (0.8 μg) from each sample was used for a reverse transcription reaction using the TaqMan Reverse Transcription Reagents (Applied Biosystems, Foster City, Calif., USA) following the manufacturer's instructions. PCR was done using the SYBR green Master Mix (Applied Biosystems, Foster City, Calif., USA) following the manufacturer's instructions. The cycling conditions of amplification were as follows: an initial step of denaturation at 95° C. for 10 min, 40 cycles of denaturation at 95° C. for 30 s, annealing at 55° C. for 30 s, and elongation at 72° C. for 30 s. Real-Time PCR was performed using Mx3000P Real-Time Thermocyclers (Stratagene, La Jolla, Calif., USA). The relative mRNA levels of these genes were calculated by 2-delta delta CT method and normalized with control-treated groups.

[8] = FD mice, 1.5 mg/kg/day, 36 days

With COc1ccc2cc3[n+](cc2c1OC)CCc1cc2c(cc1-3)OCO2.[Cl-] [berberine, Berberine (Chloride Form)] the “reduction in fat droplets” value ([1]; 1 μM) was 30.6%, the “reduction in fat droplets” value ([1]; 2 μM) was 35.8% and the “reduction in fat droplets” value ([1]; 4 μM) was 40%. The “reduction in fat droplets” value ([1]; 8 μM) was 48.6%, the inhibition at 1 µM ([1]; Mus musculus, 3T3-L1, 192 h, 1 μM, 8 days, fully differentiated cells, read-out: inhibition of fat amount) was 59.4% and the inhibition at 2 µM ([1]; Mus musculus, 3T3-L1, 192 h, 2 μM, 8 days, fully differentiated cells, read-out: inhibition of fat amount) was 58.4%. The inhibition at 4 µM ([1]; Mus musculus, 3T3-L1, 192 h, 4 μM, 8 days, fully differentiated cells, read-out: inhibition of fat amount) was 71.8%, the inhibition at 8 µM ([1]; Mus musculus, 3T3-L1, 192 h, 8 μM, 8 days, fully differentiated cells, read-out: inhibition of fat amount) was 72.6% and the “decrease of cell viability vs no berberine treated group” value ([2]; 8 μM berberine combined with 0 μM clozapine) was 22.3%. The “decrease of cell viability vs no berberine treated group” value ([2]; 8 μM berberine combined with 0 μM risperidone) was 17.8%, the “decrease of cell viability vs no berberine treated group” value ([2]; 8 μM berberine combined with 15 μM clozapine) was 16.5% and the “decrease of cell viability vs no berberine treated group” value ([2]; 8 μM berberine combined with 25 μM risperidone) was 19.5%. For the same molecule, the “decrease of cell viability vs no berberine treated group” value ([2]; 8 μM berberine combined with 30 μM clozapine) was 15%, the “decrease of cell viability vs no berberine treated group” value ([2]; 8 μM berberine combined with 50 μM risperidone) was 20.2% and the “decrease of PPARγ mRNA expression vs clozapine treated group” value ([3]; 8 μM berberine + 15 μM clozapine) was 87.7%. For the same molecule, the “decrease of PPARγ mRNA expression vs risperidone treated group” value ([3]; 8 μM berberine + 50 μM risperidone) was 93.1%, the body weight gain ([4]; FD mice, 0.75 mg/kg/day i.p., 36 days (control 4.3±0.6)) was 1.5±0.7 g/mouse and the body weight gain ([4]; FD mice, 1.5 mg/kg/day i.p., 36 days) was 1.9±0.7 g/mouse. The body weight gain ([4]; FD mice, 3 mg/kg/day i.p., 36 days) was 1.4±0.5 g/mouse, the body weight gain ([4]; ND mice, 3 mg/kg/day i.p., 36 days (control 2.3±0.9)) was 2.5±0.7 g/mouse and the food intake ([5]; FD mice, 0.75 mg/kg/day, 36 days (control 3.5±0.4)) was 3.0±0.3 g/mouse/day. For the same molecule, the food intake [5, 8] was 2.7±0.5 g/mouse/day, the food intake ([5]; FD mice, 3 mg/kg/day, 36 days) was 2.5±0.2 g/mouse/day and the food intake ([5]; ND mice, 3 mg/kg/day, 36 days (control 3.8±0.7)) was 3.3±0.5 g/mouse/day. For the same molecule, the “reduction of serum total cholesterol level” value ([6]; FD mice, 0.75 mg/kg/day) was 18.7%, the “serum total cholesterol level” value ([6]; FD mice, 0.75 mg/kg/day, 36 days (control 152.4±15.2)) was 123.9 ± 16.5 mg/dL and the “reduction of serum total cholesterol level” value ([6]; FD mice, 1.5 mg/kg/day) was 22.2%. For the same molecule, the “serum total cholesterol level” value [6, 8] was 118.5 ± 14.7 mg/dL, the “reduction of serum total cholesterol level” value ([6]; FD mice, 3 mg/kg/day) was 28% and the “serum total cholesterol level” value ([6]; FD mice, 3 mg/kg/day, 36 days) was 109.8 ± 22.7 mg/dL. The “serum total cholesterol level” value ([6]; ND mice, 3 mg/kg/day (control 96.5±16.5)) was 97.4 ± 18.3 mg/dL, the “GATA-3 mRNA expression up-regulated by” value ([7]; 0.75 mg/kg/day) was 3.2 fold and the “GATA-3 mRNA expression up-regulated by” value ([7]; 1.5 mg/kg/day) was 4.3 fold. For the same molecule, the “GATA-3 mRNA expression up-regulated by” value ([7]; 3 mg/kg/day) was 4.8 fold.
